# Experimental data published in patent US12384808B2, “Modulators of TNF-α activity” (Forward Therapeutics, Inc., priority 2022, dated 2025).
# Target: TNFα (Homo sapiens, UniProt P01375)
# Assay: TNFα Induced HEK Blue Cellular Assay
# Assay type: cell-based
# Conditions: HEK Blue TNFα reporter cells, TNFα 100 pg/ml, 24 hrs at 37° C., secreted alkaline phosphatase (QUANTI-Blue) read at 620 nm; read-out: IC50 value
# How it was run: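 Reporter cells (10,000/well, DMEM + 10% FBS) with compound (final […] to 0.5 nM) stimulated with 100 pg/ml TNFα, 24 h at 37 °C, 5% CO2. Secreted alkaline phosphatase read at 620 nm; IC50 by 4-parameter logistic fit after background correction against stimulated/unstimulated DMSO controls.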
# Chain of TNFα (P01375 77-233 limits assumed): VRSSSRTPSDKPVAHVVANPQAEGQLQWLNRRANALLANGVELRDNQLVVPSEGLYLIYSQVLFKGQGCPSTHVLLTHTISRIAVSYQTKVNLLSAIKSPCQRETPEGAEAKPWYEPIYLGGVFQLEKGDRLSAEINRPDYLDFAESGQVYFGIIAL
row,SMILES,IC50 [nM]
1,"[2H]C([2H])([2H])N1C(=O)c2cccc(OC(F)F)c2[C@H]2C[C@@H]1c1nc3ccc(-c4cnc(P(C)(C)=O)cc4C)cc3n12 [Example 87, (7R,14R)-1-(difluoromethoxy)-11-(6-(dimethylphosphoryl)-4-methylpyridin-3-yl)-6-(methyl-d3)-6,7-dihydro-7,14-methanobenzo[f]benzo[4,5]imidazo[1,2-a][1,4]diazocin-5(14H)-one]",100 to 1000
2,"[2H]C([2H])([2H])N1C(=O)c2cccc(OC(F)F)c2[C@H]2C[C@@H]1c1nc3ccc(-c4cc(F)c(P(C)(C)=O)cc4C)cc3n12 [Example 88, (7R,14R)-1-(difluoromethoxy)-11-(4-(dimethylphosphoryl)-5-fluoro-2-methylphenyl)-6-(methyl-d3)-6,7-dihydro-7,14-methanobenzo[f]benzo[4,5]imidazo[1,2-a][1,4]diazocin-5(14H)-one]",< 100
3,"[2H]C([2H])([2H])N1C(=O)c2cccc(OC(F)F)c2[C@H]2C[C@@H]1c1nc3cc(F)c(-c4cnc(P(C)(C)=O)cc4C)cc3n12 [Example 89, (7R,14R)-1-(difluoromethoxy)-11-(6-(dimethylphosphoryl)-4-methylpyridin-3-yl)-10-fluoro-6-(methyl-d3)-6,7-dihydro-7,14-methanobenzo[f]benzo[4,5]imidazo[1,2-a][1,4]diazocin-5(14H)-one]",10000 to 30000
4,"[2H]C([2H])([2H])N1C(=O)c2cccc(OC(F)F)c2[C@H]2C[C@@H]1c1nc3ccc(-c4ccc(P(C)(C)=O)c(F)c4C)cc3n12 [Example 90, (7R,14R)-1-(difluoromethoxy)-11-(4-(dimethylphosphoryl)-3-fluoro-2-methylphenyl)-6-(methyl-d3)-6,7-dihydro-7,14-methanobenzo[f]benzo[4,5]imidazo[1,2-a][1,4]diazocin-5(14H)-one]",< 100
5,"[2H]C([2H])([2H])N1C(=O)c2cccc(OC(F)F)c2[C@H]2C[C@@H]1c1nc3ccc(-c4ccc(P(C)(C)=O)nc4C)cc3n12 [Example 91, (7R,14R)-1-(difluoromethoxy)-11-(6-(dimethylphosphoryl)-2-methylpyridin-3-yl)-6-(methyl-d3)-6,7-dihydro-7,14-methanobenzo[f]benzo[4,5]imidazo[1,2-a][1,4]diazocin-5(14H)-one]",< 100
6,"[2H]C([2H])([2H])N1C(=O)c2cccc(OC(F)F)c2[C@H]2C[C@@H]1c1nc3ccc(-c4ccc(P(C)(C)=O)nc4F)cc3n12 [Example 92, (7R,14R)-1-(difluoromethoxy)-11-(6-(dimethylphosphoryl)-2-fluoropyridin-3-yl)-6-(methyl-d3)-6,7-dihydro-7,14-methanobenzo[f]benzo[4,5]imidazo[1,2-a][1,4]diazocin-5(14H)-one]",< 100
7,"[2H]C([2H])([2H])N1C(=O)c2cccc(OC(F)F)c2[C@H]2C[C@@H]1c1nc3ccc(-c4cnc(P(C)(C)=O)cc4Cl)cc3n12 [Example 93, (7R,14R)-11-(4-chloro-6-(dimethylphosphoryl)pyridin-3-yl)-1-(difluoromethoxy)-6-(methyl-d3)-6,7-dihydro-7,14-methanobenzo[f]benzo[4,5]imidazo[1,2-a][1,4]diazocin-5(14H)-one]",< 100
8,"[2H]C([2H])([2H])N1C(=O)c2cccc(OC(F)F)c2[C@H]2C[C@@H]1c1nc3ccc(-c4ccc(P(C)(C)=O)nc4Cl)cc3n12 [Example 94, (7R,14R)-11-(2-chloro-6-(dimethylphosphoryl)pyridin-3-yl)-1-(difluoromethoxy)-6-(methyl-d3)-6,7-dihydro-7,14-methanobenzo[f]benzo[4,5]imidazo[1,2-a][1,4]diazocin-5(14H)-one]",< 100
9,"[2H]C([2H])([2H])N1C(=O)c2cccc(OC(F)F)c2[C@H]2C[C@@H]1c1nc3ccc(-c4ccc(C(F)(F)P(C)(C)=O)cc4)cc3n12 [Example 95, (7R,14R)-1-(difluoromethoxy)-11-(4-((dimethylphosphoryl)difluoromethyl)phenyl)-6-(methyl-d3)-6,7-dihydro-7,14-methanobenzo[f]benzo[4,5]imidazo[1,2-a][1,4]diazocin-5(14H)-one]",< 100
10,"CP(C)(=O)Cc1ccc(-c2ccc3nc4n(c3c2)[C@@H]2C[C@H]4NC(=O)c3cccc(OC(F)F)c32)c(F)c1 [Example 96, (7R,14R)-1-(difluoromethoxy)-11-(4-((dimethylphosphoryl)methyl)-2-fluorophenyl)-6,7-dihydro-7,14-methanobenzo[f]benzo[4,5]imidazo[1,2-a][1,4]diazocin-5(14H)-one]",100 to 1000
11,"[2H]C([2H])([2H])N1C(=O)c2cccc(OC(F)F)c2[C@H]2C[C@@H]1c1nc3cc(F)c(-c4ccc(P(C)(C)=O)nc4C)cc3n12 [Example 97, (7R,14R)-1-(difluoromethoxy)-11-(6-(dimethylphosphoryl)-2-methylpyridin-3-yl)-10-fluoro-6-(methyl-d3)-6,7-dihydro-7,14-methanobenzo[f]benzo[4,5]imidazo[1,2-a][1,4]diazocin-5(14H)-one]",< 100

# Further lines, results first:
row,IC50 [nM],SMILES
1,< 100,"[2H]C([2H])([2H])N1C(=O)c2cccc(OC(F)F)c2[C@H]2C[C@@H]1c1nc3ccc(-c4ccc(NCP(C)(C)=O)nc4)cc3n12 [Example 98, (7R,14R)-1-(difluoromethoxy)-11-(6-(((dimethylphosphoryl)methyl)amino)pyridin-3-yl)-6-(methyl-d3)-6,7-dihydro-7,14-methanobenzo[f]benzo[4,5]imidazo[1,2-a][1,4]diazocin-5(14H)-one]"
2,< 100,"[2H]C([2H])([2H])N1C(=O)c2cccc(OC(F)F)c2[C@H]2C[C@@H]1c1nc3ccc(-c4ccc(C(O)P(=O)(CC)CC)cc4)cc3n12 (stereo partly drawn) [Example 101, (7R,14R)-11-(4-((diethylphosphoryl)(hydroxy)methyl)phenyl)-1-(difluoromethoxy)-6-(methyl-d3)-6,7-dihydro-7,14-methanobenzo[f]benzo[4,5]imidazo[1,2-a][1,4]diazocin-5(14H)-one]"
3,< 100,"[2H]C([2H])([2H])N1C(=O)c2cccc(OC(F)F)c2[C@H]2C[C@@H]1c1nc3ccc(-c4ccc(P(C)(C)=O)cc4C(F)F)cc3n12 [Example 102, (7R,14R)-1-(difluoromethoxy)-11-(2-(difluoromethyl)-4-(dimethylphosphoryl)phenyl)-6-(methyl-d3)-6,7-dihydro-7,14-methanobenzo[f]benzo[4,5]imidazo[1,2-a][1,4]diazocin-5(14H)-one]"
4,< 100,"[2H]C([2H])([2H])N1C(=O)c2cccc(OC(F)F)c2[C@H]2C[C@@H]1c1nc3ccc(-c4ccc(P(C)(C)=O)c(C(F)F)c4)cc3n12 [Example 103, (7R,14R)-1-(difluoromethoxy)-11-(3-(difluoromethyl)-4-(dimethylphosphoryl)phenyl)-6-(methyl-d3)-6,7-dihydro-7,14-methanobenzo[f]benzo[4,5]imidazo[1,2-a][1,4]diazocin-5(14H)-one]"
5,100 to 1000,"[2H]C([2H])([2H])N1C(=O)c2cccc(OC(F)F)c2[C@H]2C[C@@H]1c1nc3ccc(-c4ccc(P(C)(C)=O)cc4C(F)(F)F)cc3n12 [Example 104, (7R,14R)-1-(difluoromethoxy)-11-(4-(dimethylphosphoryl)-2-(trifluoromethyl)phenyl)-6-(methyl-d3)-6,7-dihydro-7,14-methanobenzo[f]benzo[4,5]imidazo[1,2-a][1,4]diazocin-5(14H)-one]"
6,< 100,"[2H]C([2H])([2H])N1C(=O)c2cccc(OC(F)F)c2[C@H]2C[C@@H]1c1nc3ccc(-c4ccc(P(C)(C)=O)c(C)c4)cc3n12 [Example 105, (7R,14R)-1-(difluoromethoxy)-11-(4-(dimethylphosphoryl)-3-methylphenyl)-6-(methyl-d3)-6,7-dihydro-7,14-methanobenzo[f]benzo[4,5]imidazo[1,2-a][1,4]diazocin-5(14H)-one]"
7,< 100,"[2H]C([2H])([2H])N1C(=O)c2cccc(OC(F)F)c2[C@H]2C[C@@H]1c1nc3ccc(-c4cc(C)c(P(C)(C)=O)c(F)c4)cc3n12 [Example 106, (7R,14R)-1-(difluoromethoxy)-11-(4-(dimethylphosphoryl)-3-fluoro-5-methylphenyl)-6-(methyl-d3)-6,7-dihydro-7,14-methanobenzo[f]benzo[4,5]imidazo[1,2-a][1,4]diazocin-5(14H)-one]"
8,< 100,"[2H]C([2H])([2H])N1C(=O)c2cccc(OC(F)F)c2[C@H]2C[C@@H]1c1nc3ccc(-c4ccc(P(C)(C)=O)c(C)c4F)cc3n12 [Example 107, (7R,14R)-1-(difluoromethoxy)-11-(4-(dimethylphosphoryl)-2-fluoro-3-methylphenyl)-6-(methyl-d3)-6,7-dihydro-7,14-methanobenzo[f]benzo[4,5]imidazo[1,2-a][1,4]diazocin-5(14H)-one]"
9,< 100,"[2H]C([2H])([2H])N1C(=O)c2cccc(OC(F)F)c2[C@H]2C[C@@H]1c1nc3ccc(-c4cc(F)c(CP(C)(C)=O)cc4C)cc3n12 [Example 108, (7R,14R)-1-(difluoromethoxy)-11-(4-((dimethylphosphoryl)methyl)-5-fluoro-2-methylphenyl)-6-(methyl-d3)-6,7-dihydro-7,14-methanobenzo[f]benzo[4,5]imidazo[1,2-a][1,4]diazocin-5(14H)-one]"
10,< 100,"[2H]C([2H])([2H])N1C(=O)c2cccc(OC(F)F)c2[C@H]2C[C@@H]1c1nc3ccc(-c4ccc(P(C)(C)=O)c(F)n4)cc3n12 [Example 115, (7R,14R)-1-(difluoromethoxy)-11-(5-(dimethylphosphoryl)-6-fluoropyridin-2-yl)-6-(methyl-d3)-6,7-dihydro-7,14-methanobenzo[f]benzo[4,5]imidazo[1,2-a][1,4]diazocin-5(14H)-one]"
11,< 100,"[2H]C([2H])([2H])N1C(=O)c2cccc(OC(F)F)c2[C@H]2C[C@@H]1c1nc3ccc(-c4ccc(C(C)P(C)(C)=O)nc4)cc3n12 (stereo partly drawn) [Example 116, (7R,14R)-1-(difluoromethoxy)-11-(6-(1-(dimethylphosphoryl)ethyl)pyridin-3-yl)-6-(methyl-d3)-6,7-dihydro-7,14-methanobenzo[f]benzo[4,5]imidazo[1,2-a][1,4]diazocin-5(14H)-one]"
